Assay results reported in US20260109707A1, “HETEROBIFUNCTIONAL COMPOUNDS AND METHODS OF TREATING DISEASE” (Halda Therapeutics OpCo. Inc., priority 2022, published 2026).
Where two headings read alike, the source gives them in different places.

Experiments:
[1] = test system: T-Rex 293 cell line SC3 cells having increased expression of androgen receptor protein due to exposure to doxycycline; assay: Cellular growth inhibition assay, T-Rex 293 SC3 cells with doxycycline (CellTiter-Glo, 72 hours); type: cell-based; conditions: T-Rex 293 SC3 cells with increased androgen receptor expression due to doxycycline (10 ng/mL)
Procedure, shortened: (§1)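 Doxycycline (10 ng/mL) was either included or omitted to toggle wild-type androgen receptor expression in SC3 cells, a T-Rex 293 clone, grown in stripped-serum, phenol red-free medium. After 72 hours with compound, viable cells were quantified by CellTiter-Glo 2.0.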

[2] = test system: T-Rex 293 cell line SC3 cells lacking increased expression of androgen receptor protein; assay: Cellular growth inhibition assay, T-Rex 293 SC3 cells without doxycycline (CellTiter-Glo, 72 hours); type: cell-based; conditions: T-Rex 293 cell line SC3 cells not exposed to doxycycline (lacking increased androgen receptor expression)
Procedure, shortened: as §1

VCaP cells = assay: Cellular growth inhibition assay for VCaP cells (CellTiter-Glo, 72 hours); type: cell-based, human
Procedure, shortened: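 Luminescent viability signal after 72 h of compound exposure gave GI50 values by four-parameter nonlinear regression. Compounds were added in 0.5% DMSO to cells plated 24 h earlier at 5000/well in DMEM containing 10% FBS.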

Structure (SMILES) | GI50 [1] [nM] | GI50 [2] [nM] | GI50 (VCaP cells) [nM] | GI50 ([1]; 72 h) [nM] | GI50 ([2]; 72 h) [nM] | GI50 (VCaP cells; Homo sapiens, VCaP, 72 h) [nM]
Cc1sc2c(c1C)C(c1ccc(N3CC(C4CCN(c5ccc(C(=O)N[C@H]6CC[C@H](Oc7ccc(C#N)c(Cl)c7)CC6)nn5)CC4)C3)nc1)=NC1(CC1)c1nnc(C)n1-2 [I-503] | < 500 | > 3000 | 1500 to 3000 |  |  | 
Cc1sc2c(c1C)C(c1ccc(OC3CC4(C3)CC3(CCN(c5ccc(C(=O)N[C@H]6CC[C@H](Oc7ccc(C#N)c(Cl)c7)CC6)nn5)CC3)C4)nc1)=NC1(CC1)c1nnc(C)n1-2 [I-504] |  |  |  | < 500 | 500 to 1500 | < 500
CC1=NN=C2C1c1sc(C)c(C)c1C(c1ccc(N3C[C@@H]4CN(c5ccc(C(=O)N[C@H]6CC[C@H](Oc7ccc(C#N)c(Cl)c7)CC6)nn5)C[C@@H]4C3)cc1)=NC21CC1 (stereo partly drawn) [I-505] |  |  |  | < 500 | > 3000 | < 500
Cc1sc2c(c1C)C(c1ccc(OC3CCC4(C3)CN(c3ccc(C(=O)N[C@H]5CC[C@H](Oc6ccc(C#N)c(Cl)c6)CC5)nn3)CCO4)cc1)=NC1(CC1)c1nnc(C)n1-2 (stereo partly drawn) [I-506] |  |  | 1500 to 3000 | < 500 | > 3000 | 
Cc1sc2c(c1C)C(c1ccc(OC3CCC4(C3)CN(c3ccc(C(=O)N[C@H]5CC[C@H](Oc6ccc(C#N)c(Cl)c6)CC5)nn3)CCO4)cc1)=NC1(CC1)c1nnc(C)n1-2 (stereo partly drawn) [I-507] | < 500 | > 3000 | > 3000 |  |  | 
Cc1sc2c(c1C)C(c1ccc(OC3CCC4(C3)CN(c3ccc(C(=O)N[C@H]5CC[C@H](Oc6ccc(C#N)c(Cl)c6)CC5)nn3)CCO4)cc1)=NC1(CC1)c1nnc(C)n1-2 (stereo partly drawn) [I-508] | < 500 | > 3000 | < 500 |  |  | 
Cc1sc2c(c1C)C(c1ccc(COC3CCC4(CCCN(c5ccc(C(=O)N[C@H]6CC[C@H](Oc7ccc(C#N)c(Cl)c7)CC6)nn5)C4)C3)cc1)=NC1(CC1)c1nnc(C)n1-2 (stereo partly drawn) [I-509] | < 500 | > 3000 |  |  |  | > 3000
CC[C@@H]1N=C(c2ccc(N3CCC4(CCCN(c5ccc(C(=O)N[C@H]6CC[C@H](Oc7ccc(C#N)c(Cl)c7)CC6)nn5)C4)CC3)cc2)c2c(sc(C)c2C)-n2c(C)nnc21 [I-510] |  |  |  | < 500 | < 500 | > 3000
Cc1sc2c(c1C)C(c1ccc(N3C[C@@H]4CN(c5ccc(C(=O)N[C@H]6CC[C@H](Oc7ccc(C#N)c(Cl)c7)CC6)nn5)C[C@@H]4C3)cc1)=N[C@@H](C)c1nnc(C)n1-2 [I-511] |  |  |  | < 500 | < 500 | < 500
Cc1sc2c(c1C)C(c1ccc(COC3CCC4(CCCN(c5ccc(C(=O)N[C@H]6CC[C@H](Oc7ccc(C#N)c(Cl)c7)CC6)nn5)C4)C3)cc1)=N[C@@H](C)c1nnc(C)n1-2 (stereo partly drawn) [I-513] | < 500 |  | 500 to 1500 |  | < 500 | 
Cc1sc2c(c1C)C(c1ccc(COC3CCC4(CCCN(c5ccc(C(=O)N[C@H]6CC[C@H](Oc7ccc(C#N)c(Cl)c7)CC6)nn5)C4)C3)cc1)=N[C@@H](C)c1nnc(C)n1-2 (stereo partly drawn) [I-514] |  | < 500 | 1500 to 3000 | < 500 |  | 
Cc1sc2c(c1C)C(c1ccc(N3CC4(CCC(Cc5ccc(C(=O)N[C@H]6CC[C@H](Oc7ccc(C#N)c(Cl)c7)CC6)nn5)CC4)C3)cc1)=N[C@@H](Cc1ncco1)c1nnc(C)n1-2 [I-515] |  |  |  | < 500 | > 3000 | < 500
C#Cc1ccc(O[C@H]2CC[C@H](NC(=O)c3ccc(N4CCC(C5CN(c6ccc(C7=NC8(CC8)c8nnc(C)n8-c8sc(C)c(C)c87)nc6)C5)CC4)nn3)CC2)cc1Cl [I-516] |  |  |  | < 500 | > 3000 | > 3000
Cc1sc2c(c1C)C(c1ccc(C3CCC4(CC3)CCN(c3ccc(C(=O)N[C@H]5CC[C@H](Oc6ccc(C#N)c(Cl)c6)CC5)nn3)C4)cc1)=NC1(CC1)c1nnc(C)n1-2 (stereo partly drawn) [I-517] |  |  | > 3000 | < 500 | > 3000 | 
Cc1sc2c(c1C)C(c1ccc(C3CCC4(CC3)CCN(c3ccc(C(=O)N[C@H]5CC[C@H](Oc6ccc(C#N)c(Cl)c6)CC5)nn3)C4)cc1)=NC1(CC1)c1nnc(C)n1-2 (stereo partly drawn) [I-518] | < 500 | > 3000 | < 500 |  |  | 
Cc1sc2c(c1C)C(c1ccc(C3CCC4(CCN(c5ccc(C(=O)N[C@H]6CC[C@H](Oc7ccc(C#N)c(Cl)c7)CC6)nn5)CC4)C3)cc1)=NC1(CC1)c1nnc(C)n1-2 (stereo partly drawn) [I-519] |  |  |  | < 500 | > 3000 | < 500

Structure (SMILES) | GI50 [1] [nM] | GI50 [2] [nM] | GI50 (VCaP cells) [nM] | GI50 ([1]; 72 h) [nM] | GI50 ([2]; 72 h) [nM] | GI50 (VCaP cells; Homo sapiens, VCaP, 72 h) [nM]
Cc1sc2c(c1C)C(c1ccc(C3CCC4(CCN(c5ccc(C(=O)N[C@H]6CC[C@H](Oc7ccc(C#N)c(Cl)c7)CC6)nn5)CC4)C3)cc1)=NC1(CC1)c1nnc(C)n1-2 (stereo partly drawn) [I-520] | < 500 | > 3000 | < 500 |  |  | 
Cc1sc2c(c1C)C(c1ccc(N3CCC4(CCN(c5ccc(C(=O)N[C@H]6CC[C@H](Oc7ccc(C#N)c(Cl)c7)CC6)nn5)C4)C3)cc1)=NC1(CC1)c1nnc(C)n1-2 (stereo partly drawn) [I-521] |  |  | 1500 to 3000 | < 500 | < 500 | 
Cc1sc2c(c1C)C(c1ccc(N3CCC4(CCN(c5ccc(C(=O)N[C@H]6CC[C@H](Oc7ccc(C#N)c(Cl)c7)CC6)nn5)C4)C3)cc1)=NC1(CC1)c1nnc(C)n1-2 (stereo partly drawn) [I-522] | < 500 | < 500 | 500 to 1500 |  |  | 
Cc1sc2c(c1C)C(c1ccc(OC3CCC4(CCCN(c5ccc(C(=O)N[C@H]6CC[C@H](Oc7ccc(C#N)c(Cl)c7)CC6)nn5)C4)C3)cc1)=NC1(CC1)c1nnc(C)n1-2 (stereo partly drawn) [I-523] |  | > 3000 | > 3000 | < 500 |  | 
Cc1sc2c(c1C)C(c1ccc(OC3CCC4(CCCN(c5ccc(C(=O)N[C@H]6CC[C@H](Oc7ccc(C#N)c(Cl)c7)CC6)nn5)C4)C3)cc1)=NC1(CC1)c1nnc(C)n1-2 (stereo partly drawn) [I-524] | < 500 | > 3000 | > 3000 |  |  | 
Cc1sc2c(c1C)C(c1ccc(OC3CCC4(CCCN(c5ccc(C(=O)N[C@H]6CC[C@H](Oc7ccc(C#N)c(Cl)c7)CC6)nn5)C4)C3)cc1)=NC1(CC1)c1nnc(C)n1-2 (stereo partly drawn) [I-525] | < 500 | > 3000 | < 500 |  |  | 
Cc1sc2c(c1C)C(c1ccc(OC3CCC4(CCCN(c5ccc(C(=O)N[C@H]6CC[C@H](Oc7ccc(C#N)c(Cl)c7)CC6)nn5)C4)C3)cc1)=NC1(CC1)c1nnc(C)n1-2 (stereo partly drawn) [I-526] | < 500 | 500 to 1500 | < 500 |  |  | 
Cc1sc2c(c1C)C(c1ccc(CC3CCC4(C3)CN(c3ccc(C(=O)N[C@H]5CC[C@H](Oc6ccc(C#N)c(Cl)c6)CC5)nn3)CCO4)cc1)=NC1(CC1)c1nnc(C)n1-2 (stereo partly drawn) [I-527] |  |  |  | < 500 | > 3000 | 1500 to 3000
Cc1sc2c(c1C)C(c1ccc(OC3CC(CC4CCN(c5ccc(C(=O)N[C@H]6CC[C@H](Oc7ccc(C#N)c(Cl)c7)CC6)nn5)CC4)C3)cc1)=NC1(CC1)c1nnc(C)n1-2 (stereo partly drawn) [I-528] |  |  |  | < 500 | > 3000 | < 500
Cc1sc2c(c1C)C(c1ccc(OC3CC(CC4CCN(c5ccc(C(=O)N[C@H]6CC[C@H](Oc7ccc(C#N)c(Cl)c7)CC6)nn5)CC4)C3)cc1)=NC1(CC1)c1nnc(C)n1-2 (stereo partly drawn) [I-529] | < 500 | > 3000 | < 500 |  |  | 
CC[C@@H]1N=C(c2ccc(N3CCC4(CC3)CCN(c3ccc(C(=O)N[C@H]5CC[C@H](Oc6ccc(C#N)c(Cl)c6)CC5)nn3)C4)cc2)c2c(sc(C)c2C)-n2c(C)nnc21 [I-530] |  |  |  | < 500 | < 500 | > 3000
CC[C@@H]1N=C(c2ccc(C#CC3CC4(C3)CN(c3ccc(C(=O)N[C@H]5CC[C@H](Oc6ccc(C#N)c(Cl)c6)CC5)nn3)C4)cc2)c2c(sc(C)c2C)-n2c(C)nnc21 [I-531] |  |  |  | < 500 | < 500 | < 500
Cc1sc2c(c1C)C(c1ccc(C3CCC4(CC3)CCN(c3ccc(C(=O)N[C@H]5CC[C@H](Oc6ccc(C#N)c(Cl)c6)CC5)nn3)CC4)cc1)=NC1(CC1)c1nnc(C)n1-2 [I-532] |  |  |  | < 500 | > 3000 | < 500
Cc1sc2c(c1C)C(c1ccc(C3CCC4(CC3)CCN(c3ccc(C(=O)N[C@H]5CC[C@H](Oc6ccc(C#N)c(Cl)c6)CC5)nn3)C4)nc1)=N[C@@H](C)c1nnc(C)n1-2 (stereo partly drawn) [I-533] |  |  | < 500 | < 500 | < 500 | 
Cc1sc2c(c1C)C(c1ccc(C3CCC4(CC3)CCN(c3ccc(C(=O)N[C@H]5CC[C@H](Oc6ccc(C#N)c(Cl)c6)CC5)nn3)C4)nc1)=N[C@@H](C)c1nnc(C)n1-2 (stereo partly drawn) [I-534] | < 500 | < 500 | > 3000 |  |  | 
